Results reported in patent US20040242700A1 (priority 2001, published 2004).
Read-outs that look alike come from different tables or passages of the source.

Experiments:
trypsin-type protease [1] = format: in vivo, mice; conditions: 4th day
trypsin-type protease [2] = test system: trypsin-type protease; design: species or system mice; conditions: mouse, in vivo, ip
IL-12 = format: in vivo, mice
[3] = test system: mucosal immunoglobulin IgA; format: in vivo, mice
MPI [4] = format: in vivo, mice; conditions: administration of ambroxol
TNF-α = format: in vivo, mice; conditions: 3rd to 5th day of treatment, not always observed
IL-6 = format: in vivo, mice
[5] = test system: inflammatory cytokines such as TNF-α, IL-2, IL-1, IL-4, IL-13 and IFN-γ; conditions: literature reports; cited from earlier work
SP-A [6] = format: in vivo, mice; conditions: administration of ambroxol
MPI [7] = format: in vivo, mice
[8] = test system: mucosal immunoglobulin IgG; format: in vivo, mice
SP-A [9] = test system: SP-A; design: species or system mice; conditions: mouse, in vivo, ip
[10] = test system: mucosal immunoglobulin IgA; format: in vivo, mice; remark: listed apart in the source
IFN-γ = format: in vivo, mice
[11] = test system: mucosal immunoglobulin IgG; format: in vivo, mice; remark: listed apart in the source

Nc1c(Br)cc(Br)cc1CN[C@H]1CC[C@H](O)CC1 [ambroxol, 2-amino-3,5-dibromo-N-[trans-4-hydroxycyclohexyl] benzyl amine]
peak trypsin-type protease level relative to un-infected animals (trypsin-type protease [1]; 10 mg/kg/day i.p.): up to 2.2 times
peak trypsin-type protease level relative to un-infected animals (trypsin-type protease [1]; 30 mg/kg/day i.p.): ≤ 2.4 times
day on which the trypsin-type protease level reached the peak value (trypsin-type protease [2]; 10 mg/kg/day): 5 days
day on which the trypsin-type protease level reached the peak level (trypsin-type protease [2]; 30 mg/kg/day): 4 days
IL-12 (IL-12; 10 mg/kg/day i.p., day 1): 27.3 ± 7.1 pg/mL
IL-12 (IL-12; 10 mg/kg/day i.p., day 2): 68.5 ± 12.9 pg/mL
IL-12 (IL-12; 10 mg/kg/day i.p., day 3): 133.3 ± 17.2 pg/mL
IL-12 (IL-12; 10 mg/kg/day i.p., day 4): 119.5 ± 15.8 pg/mL
IL-12 (IL-12; 10 mg/kg/day i.p., day 5): 57.4 ± 16.0 pg/mL
IL-12 (IL-12; 10 mg/kg/day i.p., day 6): 29.4 ± 6.2 pg/mL
IL-12 (IL-12; 10 mg/kg/day i.p., day 7): 62.5 ± 27.7 pg/mL
IL-12 (IL-12; 30 mg/kg/day i.p., day 1): 22.4 ± 4.1 pg/mL
IL-12 (IL-12; 30 mg/kg/day i.p., day 2): 108.2 ± 33.3 pg/mL
IL-12 (IL-12; 30 mg/kg/day i.p., day 3): 141.5 ± 15.1 pg/mL
IL-12 (IL-12; 30 mg/kg/day i.p., day 4): 118.6 ± 11.4 pg/mL
IL-12 (IL-12; 30 mg/kg/day i.p., day 5): 62.4 ± 13.6 pg/mL
IL-12 (IL-12; 30 mg/kg/day i.p., day 6): 44.3 ± 29.1 pg/mL
IL-12 (IL-12; 30 mg/kg/day i.p., day 7): 95.8 ± 52.2 pg/mL
IgA concentration relative to the group free of treatment ([3]; 10 mg/kg/day, 7th day): about 10 times
IgA concentration relative to the group free of treatment ([3]; 30 mg/kg/day, 5th day): about 10 times
IgA concentration relative to the basic concentration ([3]; dose not stated): about 10 times
secretion of MPI (MPI [4]): lightly promoted
effect on TNF-α secretion in BALF (TNF-α): secretion-inhibitory effects
IL-6 (IL-6; 10 mg/kg/day i.p., day 1): 174.8 ± 35.0 pg/mL
IL-6 (IL-6; 10 mg/kg/day i.p., day 2): 191.8 ± 51.9 pg/mL
IL-6 (IL-6; 10 mg/kg/day i.p., day 3): 280.2 ± 54.2 pg/mL
IL-6 (IL-6; 10 mg/kg/day i.p., day 4): 339.2 ± 57.1 pg/mL
IL-6 (IL-6; 10 mg/kg/day i.p., day 5): 540.9 ± 84.2 pg/mL
IL-6 (IL-6; 10 mg/kg/day i.p., day 6): 503.23 ± 61.4 pg/mL
IL-6 (IL-6; 10 mg/kg/day i.p., day 7): 73.7 ± 14.7 pg/mL
IL-6 (IL-6; 30 mg/kg/day i.p., day 1): 170.8 ± 28.9 pg/mL
IL-6 (IL-6; 30 mg/kg/day i.p., day 2): 186.7 ± 19.6 pg/mL
IL-6 (IL-6; 30 mg/kg/day i.p., day 3): 326.2 ± 44.9 pg/mL
IL-6 (IL-6; 30 mg/kg/day i.p., day 4): 433.5 ± 101.9 pg/mL
IL-6 (IL-6; 30 mg/kg/day i.p., day 5): 478.2 ± 86.4 pg/mL
IL-6 (IL-6; 30 mg/kg/day i.p., day 6): 817.0 ± 168.0 pg/mL
IL-6 (IL-6; 30 mg/kg/day i.p., day 7): 80.0 ± 17.5 pg/mL
effect on the level of IL-6 in BALF (IL-6; 4th and 6th days of treatment): increased
in vitro release of inflammatory cytokines such as TNF-α, IL-2, IL-1, IL-4, IL-13 and IFN-γ [5]: inhibits
secretion of SP-A (SP-A [6]): lightly promoted
MPI concentration relative to that induced by the viral infection (MPI [7]; […], treatment with ambroxol): 1.9 times
peak MPI concentration relative to un-infected animals (MPI [7]; mouse, in vivo): 8.4 times
day on which the MPI level reached the peak value (MPI [7]; mouse, in vivo, ip, 10 mg/kg/day): 5 days
day on which the MPI level reached the maximum value (MPI [7]; mouse, in vivo, ip, 30 mg/kg/day): 4 days
IgG concentration relative to the group free of treatment ([8]; 10 mg/kg/day, 7th day): about 1.2 time
IgG concentration relative to the group free of treatment ([8]; 30 mg/kg/day, 6th day): about 1.2 time
IgG concentration relative to the basic concentration ([8]; dose not stated): 1.2 times
day on which the SP-A level reached the peak value (SP-A [9]; 10 mg/kg/day): 5 days
day on which the SP-A level reached the maximum value (SP-A [9]; 30 mg/kg/day): 4 days
IgA level relative to the basic concentration of IgA ([10]; 10 mg/kg/day, 7th day): about 600 times
IgA level relative to the basic concentration of IgA ([10]; 30 mg/kg/day, 5th day): ~700 times
IgA concentration relative to the maximum concentration induced through the viral infection ([10]; treatment with ambroxol): 1.5-1.8 times
INF-γ (IFN-γ; 10 mg/kg/day i.p., day 1): 9.4 ± 2.4 pg/mL
INF-γ (IFN-γ; 10 mg/kg/day i.p., day 2): 9.5 ± 1.8 pg/mL
INF-γ (IFN-γ; 10 mg/kg/day i.p., day 3): 2.8 ± 0.9 pg/mL
IFN-γ (IFN-γ; 10 mg/kg/day i.p., day 4): 5.3 ± 2.8 pg/mL
IFN-γ (IFN-γ; 10 mg/kg/day i.p., day 5): 14.7 ± 5.3 pg/mL
IFN-γ (IFN-γ; 10 mg/kg/day i.p., day 6): 39.4 ± 18.6 pg/mL
IFN-γ (IFN-γ; 10 mg/kg/day i.p., day 7): 4.0 ± 1.6 pg/mL
INF-γ (IFN-γ; 30 mg/kg/day i.p., day 1): 10.4 ± 2.7 pg/mL
INF-γ (IFN-γ; 30 mg/kg/day i.p., day 2): 9.8 ± 2.4 pg/mL
INF-γ (IFN-γ; 30 mg/kg/day i.p., day 3): 4.0 ± 1.1 pg/mL
IFN-γ (IFN-γ; 30 mg/kg/day i.p., day 4): 10.2 ± 5.5 pg/mL
IFN-γ (IFN-γ; 30 mg/kg/day i.p., day 5): 32.8 ± 11.1 pg/mL
IFN-γ (IFN-γ; 30 mg/kg/day i.p., day 6): 61.8 ± 21.7 pg/mL
IFN-γ (IFN-γ; 30 mg/kg/day i.p., day 7): 5.1 ± 1.8 pg/mL
effect on INF-γ secretion in BALF (IFN-γ; 1st day of treatment, not always observed): secretion-inhibitory effects
IgG concentration relative to the basic concentration of IgG ([11]; 10 mg/kg/day, 6th day): about 16 times
IgG concentration relative to the basic concentration of IgG ([11]; 30 mg/kg/day, 5th day): ~15 times
IgG concentration relative to the maximum concentration induced through the viral infection ([11]; treatment with ambroxol): ~1.45 times
